From ChEMBL document CHEMBL5385959, “Trifluoroacetic acid-mediated synthesis of xanthene constructs and their extensive anti-tuberculosis evaluation” (RSC Med Chem, 2024)
Converted amounts (≈) assume the structure as drawn.

Key:
Format in all cases: functional
[1] = system: Mycobacterium tuberculosis; experiment: Antibacterial activity against Mycobacterium tuberculosis H37Rv assessed as reduction in bacterial growth incubated for 14 days by CLSI protocol based method; conditions: 336 h, time 14 day
Escherichia coli = experiment: Antibacterial activity against Escherichia coli assessed as reduction in bacterial growth incubated for 24 hrs by broth dilution method
Bacillus subtilis = experiment: Antibacterial activity against Bacillus subtilis assessed as reduction in bacterial growth incubated for 24 hrs by broth dilution method
[2] = system: Mycobacterium tuberculosis; experiment: Antibacterial activity against Mycobacterium tuberculosis H37Ra assessed as reduction in bacterial growth incubated for 14 days by CLSI protocol based method; conditions: 336 h, time 14 day
Pseudomonas aeruginosa = experiment: Antibacterial activity against Pseudomonas aeruginosa assessed as reduction in bacterial growth incubated for 24 hrs by broth dilution method
[3] = system: Mycobacterium tuberculosis; experiment: Antibacterial activity against Mycobacterium tuberculosis H37Rv assessed as reduction in bacterial growth by broth microdilution method

| Compound | MIC [1] [µg/mL] | MIC (Escherichia coli) [µg/mL] | MIC (Bacillus subtilis) [µg/mL] | MIC [2] [µg/mL] | MIC (Pseudomonas aeruginosa) [µg/mL] | MIC [3] [µg/mL] |
| --- | --- | --- | --- | --- | --- | --- |
| Cc1cccc(C2C3=C(CCCC3=O)OC3=C2C(=O)CCC3)c1 | 64 (≈ 208 µM) | > 128 | > 128 | 64 (≈ 208 µM) | > 128 |  |
| O=C1CCCC2=C1C(c1cccc([N+](=O)[O-])c1)C1=C(CCCC1=O)O2 | 64 (≈ 189 µM) | > 128 | > 128 | 64 (≈ 189 µM) | > 128 |  |
| C[C@H]1COc2c(N3CCN(C)CC3)c(F)cc3c(=O)c(C(=O)O)cn1c23 [LEVOFLOXACIN ANHYDROUS] | 2.5 (≈ 6.92 µM) |  |  | 0.039 (≈ 0.108 µM) |  |  |
| CC1(C)CC(=O)C2=C(C1)OC1=C(C(=O)CC(C)(C)C1)C2c1ccc(C#N)cc1 | 64 (≈ 170 µM) | > 128 | > 128 | 64 (≈ 170 µM) | > 128 |  |
| O=C1CCCC2=C1C(c1cccc(Br)c1)C1=C(CCCC1=O)O2 | 64 (≈ 171 µM) | > 128 | > 128 | 64 (≈ 171 µM) | > 128 |  |
| CC1(C)CC(=O)C2=C(C1)OC(N)=C(C#N)C2c1ccc(O)cc1 (stereo not given) | > 64 |  |  |  |  |  |
| COc1ccc(C2C3=C(CCCC3=O)OC3=C2C(=O)CCC3)cc1 | 16 (≈ 49.3 µM) | > 128 | > 128 | 16 (≈ 49.3 µM) | > 128 |  |
| O=C1CCCC2=C1C(c1ccc(Br)cc1)C1=C(CCCC1=O)O2 | 64 (≈ 171 µM) | > 128 | > 128 | 64 (≈ 171 µM) | > 128 |  |
| O=C1CCCC2=C1C(c1ccccc1)C1=C(CCCC1=O)O2 | 64 (≈ 217 µM) | > 128 | > 128 | 64 (≈ 217 µM) | > 128 |  |
| CO[C@H]1/C=C/O[C@@]2(C)Oc3c(C)c(O)c4c(O)c(c(/C=N/N5CCN(C)CC5)c(O)c4c3C2=O)NC(=O)/C(C)=C\C=C\[C@H](C)[C@H](O)[C@@H](C)[C@@H](O)[C@@H](C)[C@H](OC(C)=O)[C@@H]1C [RIFAMPIN] |  |  |  |  |  | 8 (≈ 9.72 µM) |
| O=C1CCCC2=C1C(c1cccc(F)c1)C1=C(CCCC1=O)O2 | 64 (≈ 205 µM) | > 128 | > 128 | 64 (≈ 205 µM) | > 128 |  |
| COc1ccc(OC)c(C2C3=C(CCCC3=O)OC3=C2C(=O)CCC3)c1 | 64 (≈ 181 µM) | > 128 | > 128 | 64 (≈ 181 µM) | > 128 |  |
| COc1cccc(C2C3=C(CC(C)(C)CC3=O)OC3=C2C(=O)CC(C)(C)C3)c1 | 64 (≈ 168 µM) | > 128 | > 128 | 64 (≈ 168 µM) | > 128 |  |
| N#CC1=C(N)OC2=C(C(=O)CCC2)C1c1ccccc1 (stereo not given) | > 64 |  |  |  |  |  |
| CC1(C)CC(=O)C2=C(C1)OC1=C(C(=O)CC(C)(C)C1)C2c1cccc(O)c1 | 64 (≈ 175 µM) | > 128 | > 128 | 64 (≈ 175 µM) | > 128 |  |
| CC1(C)CC(=O)C2=C(C1)OC1=C(C(=O)CC(C)(C)C1)C2c1ccc(O)cc1 | 64 (≈ 175 µM) | > 128 | > 128 | 64 (≈ 175 µM) | > 128 |  |
